≈ marks a conversion by molar mass, not a printed value.
Tests used:
[1] = tested on: Staphylococcus aureus SA1199A; assay: broth micro-dilution MIC; format: cell-based
Experimental: (§1) The MIC's were determined using a standard broth micro-dilution assay.

[2] = tested on: Entercoccus faecium 180-1; assay: broth micro-dilution MIC; format: cell-based
Experimental: as §1

[3] = tested on: Streptococcus pyogenes C203; assay: broth micro-dilution MIC; format: cell-based
Experimental: as §1

[4] = tested on: Entercoccus faecium 276; assay: broth micro-dilution MIC; format: cell-based
Experimental: as §1

[5] = tested on: Staphylococcus aureus SA1199; assay: broth micro-dilution MIC; format: cell-based
Experimental: as §1

[6] = tested on: Streptococcus pneumoniae P1; assay: broth micro-dilution MIC; format: cell-based
Experimental: (§2) The formula I compounds have in vitro and in vivo activity against Gram-positive pathogenic bacteria. The MIC's were determined using a standard broth micro-dilution assay.

[7] = tested on: Enterococcus gallinarum 245; assay: broth micro-dilution MIC; format: cell-based; conditions: Enterococcus gallinarum 245
Experimental: as §2

[8] = tested on: Entercoccus faecium 180; assay: broth micro-dilution MIC; format: cell-based; conditions: Entercoccus faecium 180
Experimental: as §2

[9] = tested on: Staphylococcus aureus SA1199B; format: cell-based
Experimental: as §1

[10] = tested on: Staphylococcus aureus S13E; format: cell-based
Experimental: as §1

[11] = tested on: vancomycin-susceptible enterococci; assay: broth micro-dilution, mean geometric MIC; format: cell-based, Enterococcus faecium and Enterococcus faecalis; conditions: enterococci, 24-hour incubation
[12] = tested on: Staphylococcus aureus X400; assay: broth micro-dilution MIC; format: cell-based
Experimental: as §1

[13] = tested on: Staphylococcus aureus 446; assay: broth micro-dilution MIC; format: cell-based
Experimental: as §1

[14] = tested on: Staphylococcus aureus 447; assay: broth micro-dilution MIC; format: cell-based
Experimental: as §1

[15] = tested on: Staphylococcus aureus X778; assay: broth micro-dilution MIC; format: cell-based
Experimental: as §1

[16] = tested on: vancomycin-resistant enterococci; assay: broth micro-dilution, mean geometric MIC; format: cell-based, Enterococcus faecium and Enterococcus faecalis; conditions: enterococci, 24-hour incubation
[17] = tested on: Entercoccus faecium 2041; assay: broth micro-dilution MIC; format: cell-based; conditions: Entercoccus faecium 2041
Experimental: as §2

[18] = tested on: Staphylococcus haemolyticus 105; assay: broth micro-dilution MIC; format: cell-based
Experimental: as §2

[19] = tested on: Staphylococcus epidermidis 270; assay: broth micro-dilution MIC; format: cell-based
Experimental: as §2

[20] = tested on: Staphylococcus haemolyticus 415; assay: broth micro-dilution MIC; format: cell-based
Experimental: as §2

SMILES | MIC [1] [µg/mL] | MIC [2] [µg/mL] | MIC [3] [µg/mL] | MIC [4] [µg/mL] | MIC [5] [µg/mL] | MIC [6] [µg/mL] | MIC [7] [µg/mL] | MIC [8] [µg/mL] | MIC [9] [µg/mL] | MIC [10] [µg/mL] | mean geometric MIC, Vancomycin Sensitive Strains [11] [µg/mL] | MIC [12] [µg/mL] | MIC [13] [µg/mL] | MIC [14] [µg/mL] | MIC [15] [µg/mL] | mean geometric MIC, Vancomycin Resistant Strains [16] [µg/mL] | MIC [17] [µg/mL] | MIC [18] [µg/mL] | MIC [19] [µg/mL] | MIC [20] [µg/mL]
CCCCCCCCCCCCOc1ccc(CNC2(C)CC(OC3C(Oc4c5cc6cc4Oc4ccc(cc4Cl)C(OC4CC(C)(N)C(O)C(C)O4)C4NC(=O)C(NC(=O)C6NC(=O)C(CC(N)=O)NC(=O)C(NC(=O)C(CC(C)C)NC)C(O)c6ccc(c(Cl)c6)O5)c5ccc(O)c(c5)-c5c(O)cc(O)cc5C(C(=O)O)NC4=O)OC(CO)C(O)C3O)OC(C)C2O)cc1 (centres unmarked) [Compound 10] | 4 (≈ 2.14 µM) | 4 (≈ 2.14 µM) | ≤ 0.06 | 18 (≈ 9.64 µM) | 8 (≈ 4.29 µM) | 0.125 (≈ 0.067 µM) | 8 (≈ 4.29 µM) | 8 (≈ 4.29 µM) | 8 (≈ 4.29 µM) | 8 (≈ 4.29 µM) | 3.5 | – | – | – | – | – | – | – | – | –
CNC(CC(C)C)C(=O)NC1C(=O)NC(CC(N)=O)C(=O)NC2C(=O)NC3C(=O)NC(C(=O)NC(C(=O)O)c4cc(O)cc(O)c4-c4cc3ccc4O)C(OC3CC(C)(N)C(O)C(C)O3)c3ccc(c(Cl)c3)Oc3cc2cc(c3OC2OC(CO)C(O)C(O)C2OC2CC(C)(NCCc3cccc(Oc4ccccc4)c3)C(O)C(C)O2)Oc2ccc(cc2Cl)C1O (centres unmarked) [Compound 62] | ≤ 0.06 | ≤ 0.06 | ≤ 0.06 | 0.5 (≈ 0.28 µM) | – | ≤ 0.06 | 4 (≈ 2.24 µM) | 4 (≈ 2.24 µM) | 1 (≈ 0.559 µM) | 0.5 (≈ 0.28 µM) | 0.22 | ≤ 0.06 | 2 (≈ 1.12 µM) | 0.5 (≈ 0.28 µM) | 0.5 (≈ 0.28 µM) | 9.5 | ≤ 0.06 | 2 (≈ 1.12 µM) | 1 (≈ 0.559 µM) | –
CNC(CC(C)C)C(=O)NC1C(=O)NC(CC(N)=O)C(=O)NC2C(=O)NC3C(=O)NC(C(=O)NC(C(=O)O)c4cc(O)cc(O)c4-c4cc3ccc4O)C(OC3CC(C)(N)C(O)C(C)O3)c3ccc(c(Cl)c3)Oc3cc2cc(c3OC2OC(CO)C(O)C(O)C2OC2CC(C)(NCc3ccc4cc(OC)ccc4c3)C(O)C(C)O2)Oc2ccc(cc2Cl)C1O (centres unmarked) [Compound 65] | ≤ 0.06 | ≤ 0.06 | – | 0.5 (≈ 0.284 µM) | 0.5 (≈ 0.284 µM) | ≤ 0.06 | 4 (≈ 2.27 µM) | 0.5 (≈ 0.284 µM) | 2 (≈ 1.13 µM) | 0.5 (≈ 0.284 µM) | 0.20 | – | 2 (≈ 1.13 µM) | 1 (≈ 0.567 µM) | 0.5 (≈ 0.284 µM) | 2.4 | ≤ 0.06 | – | 1 (≈ 0.567 µM) | 4 (≈ 2.27 µM)
CNC(CC(C)C)C(=O)NC1C(=O)NC(CC(N)=O)C(=O)NC2C(=O)NC3C(=O)NC(C(=O)NC(C(=O)O)c4cc(O)cc(O)c4-c4cc3ccc4O)C(OC3CC(C)(N)C(O)C(C)O3)c3ccc(c(Cl)c3)Oc3cc2cc(c3OC2OC(CO)C(O)C(O)C2OC2CC(C)(NCCc3ccc(OCc4ccccc4)cc3)C(O)C(C)O2)Oc2ccc(cc2Cl)C1O (centres unmarked) [Compound 68] | ≤ 0.06 | ≤ 0.06 | – | ≤ 0.06 | ≤ 0.06 | – | 4 (≈ 2.22 µM) | 2 (≈ 1.11 µM) | 0.5 (≈ 0.277 µM) | ≤ 0.06 | – | ≤ 0.06 | – | – | ≤ 0.06 | 6.7 | ≤ 0.06 | 2 (≈ 1.11 µM) | 2 (≈ 1.11 µM) | 4 (≈ 2.22 µM)
CNC(CC(C)C)C(=O)NC1C(=O)NC(CC(N)=O)C(=O)NC2C(=O)NC3C(=O)NC(C(=O)NC(C(=O)O)c4cc(O)cc(O)c4-c4cc3ccc4O)C(OC3CC(C)(N)C(O)C(C)O3)c3ccc(c(Cl)c3)Oc3cc2cc(c3OC2OC(CO)C(O)C(O)C2OC2CC(C)(NCc3cc(-c4ccccc4)ccc3O)C(O)C(C)O2)Oc2ccc(cc2Cl)C1O (centres unmarked) [Compound 85] | ≤ 0.06 | ≤ 0.06 | ≤ 0.06 | – | 0.5 (≈ 0.282 µM) | ≤ 0.06 | 2 (≈ 1.13 µM) | ≤ 0.06 | 1 (≈ 0.563 µM) | 0.5 (≈ 0.282 µM) | 0.11 | – | – | – | – | 3.4 | ≤ 0.06 | 1 (≈ 0.563 µM) | 0.5 (≈ 0.282 µM) | 2 (≈ 1.13 µM)
CNC(CC(C)C)C(=O)NC1C(=O)NC(CC(N)=O)C(=O)NC2C(=O)NC3C(=O)NC(C(=O)NC(C(=O)O)c4cc(O)cc(O)c4-c4cc3ccc4O)C(OC3CC(C)(N)C(O)C(C)O3)c3ccc(c(Cl)c3)Oc3cc2cc(c3OC2OC(CO)C(O)C(O)C2OC2CC(C)(NCc3ccc(N4CCCCC4C)cc3)C(O)C(C)O2)Oc2ccc(cc2Cl)C1O (centres unmarked) [Compound 135] | ≤ 0.06 | ≤ 0.06 | ≤ 0.06 | 0.5 (≈ 0.281 µM) | 1 (≈ 0.562 µM) | ≤ 0.06 | 2 (≈ 1.12 µM) | 1 (≈ 0.562 µM) | – | 1 (≈ 0.562 µM) | 0.22 | ≤ 0.06 | 1 (≈ 0.562 µM) | 1 (≈ 0.562 µM) | 1 (≈ 0.562 µM) | 4.8 | – | 0.5 (≈ 0.281 µM) | 0.5 (≈ 0.281 µM) | 2 (≈ 1.12 µM)
CNC(CC(C)C)C(=O)NC1C(=O)NC(CC(N)=O)C(=O)NC2C(=O)NC3C(=O)NC(C(=O)NC(C(=O)O)c4cc(O)cc(O)c4-c4cc3ccc4O)C(OC3CC(C)(N)C(O)C(C)O3)c3ccc(c(Cl)c3)Oc3cc2cc(c3OC2OC(CO)C(O)C(O)C2OC2CC(C)(NCc3ccc(S(=O)(=O)c4ccc(Cl)cc4)cc3)C(O)C(C)O2)Oc2ccc(cc2Cl)C1O (centres unmarked) [Compound 148] | ≤ 0.06 | ≤ 0.06 | ≤ 0.06 | ≤ 0.06 | 2 (≈ 1.08 µM) | ≤ 0.06 | 2 (≈ 1.08 µM) | – | 0.5 (≈ 0.269 µM) | 1 (≈ 0.538 µM) | 0.052 | ≤ 0.06 | 1 (≈ 0.538 µM) | 1 (≈ 0.538 µM) | 2 (≈ 1.08 µM) | 0.15 | ≤ 0.06 | 1 (≈ 0.538 µM) | 0.5 (≈ 0.269 µM) | 2 (≈ 1.08 µM)
